Source: US10829520B2, “Beta-hairpin peptidomimetics” (POLYPHOR AG, priority 2015, dated 2020)
Where a SMILES comes first, the peptide text is derived from it. Bridges are numbered along the chain shown (N, C = ends). [ ]: non-standard residue; d: D form. Pen = CC(C)(S)[C@H](N)C(=O)O; Tle = CC(C)(C)[C@H](N)C(=O)O; dDab = NCC[C@@H](N)C(=O)O; Dab = NCC[C@H](N)C(=O)O; Dap = NC[C@H](N)C(=O)O; Sar = CNCC(=O)O

Columns and labels:
Assay type in all cases: cell-based
[1] = tested on: human red blood cells (hRBC); assay: Hemolysis of human red blood cells; settings: red cells of human, 1 h
Method in brief: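 hRBC washed 3× PBS; 20% v/v, ~0.9×10^9 cells/mL final. Peptide 100 μg/mL, 1 h, 37° C., 300 rpm. Spin, supernatant diluted 8×, OD540. 0% = PBS + 0.001% acetic acid; 100% = 2.5% Triton X-100. % hemolysis = OD540 peptide/OD540 full lysis × 100.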

[2] = tested on: Pseudomonas aeruginosa ATCC 27853; settings: ATCC 27853
Method in brief: (§1)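 Minimal inhibitory concentrations were recorded in μg/mL after the strains grew 18-20 hours at 35° C with two-fold serial peptide dilutions. The medium was Mueller-Hinton II (cation-adjusted) with 0.002% Polysorbate 80, and the inoculum was about 10^6 CFU/mL.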

[3] = tested on: Klebsiella pneumoniae 968733; settings: 968733
[4] = tested on: Acinetobacter baumannii 872842; settings: 872842
[5] = tested on: Acinetobacter baumannii DSM 30008; settings: DSM 30008
Method in brief: as §1

Escherichia coli 926415 = settings: 926415
[6] = tested on: Escherichia coli ATCC 25922; settings: ATCC 25922
Method in brief: as §1

[7] = tested on: Klebsiella pneumoniae SSI #3010; settings: SSI #3010
Method in brief: as §1

| SMILES | Hemolysis at 100 μg/mL ([1]; 100 μg/mL) | Pseudomonas aeruginosa ATCC 27853 MIC [2] | Klebsiella pneumoniae 968733 MIC [3] | Acinetobacter baumannii 872842 MIC [4] | Acinetobacter baumannii DSM 30008 MIC [5] | Escherichia coli 926415 MIC (Escherichia coli 926415) | Escherichia coli ATCC 25922 MIC [6] | Klebsiella pneumoniae SSI #3010 MIC [7] | Hemolysis at 100 μg/mL [1]; 100 |
| --- | --- | --- | --- | --- | --- | --- | --- | --- | --- |
| CC(C)C[C@@H]1NC(=O)[C@@H](CC(C)C)NC(=O)[C@H](CCN)NC(=O)[C@@H](NC(=O)[C@H](CCN)NC(=O)[C@@H](NC(=O)[C@H](CCN)NC(=O)CN(C)C(=O)[C@@H]2CSSC[C@H](NC(=O)[C@@H](N)CC(C)C)C(=O)N[C@@H](C(C)C)C(=O)N[C@@H](CO)C(=O)N[C@@H](CO)C(=O)N3CCC[C@@H]3C(=O)N3CCC[C@H]3C(=O)N[C@@H](CC(C)C)C(=O)N[C@@H](CN)C(=O)N[C@@H](Cc3ccc(O)cc3)C(=O)N2)[C@@H](C)O)CCNC(=O)[C@H]([C@@H](C)O)NC(=O)[C@H](CCN)NC(=O)[C@H](CCN)NC1=O [Ex. 159] (H-LCVSS[dP]PL[Dap]YC[Sar][Dab]T[Dab][Dab][Dab][dL]L[Dab][Dab]T; disulfide 2-11; lactam 16-C) | <1% | 2 µg/mL | 8 µg/mL | 0.25 µg/mL | 0.5 µg/mL | 2 µg/mL | 0.5 µg/mL | 1 µg/mL |  |
| CC(=O)N[C@@H](Cc1c[nH]c2ccccc12)C(=O)N[C@@H](CCN)C(=O)N[C@H](C(=O)N[C@H]1CSSC[C@@H](C(=O)N[C@@H](Cc2ccc(O)cc2)C(=O)N[C@@H](CCN)C(=O)N[C@@H](CN)C(=O)N[C@@H](CCN)C(=O)N[C@@H](CCN)C(=O)N[C@@H](CCN)C(=O)N[C@H]2CCNC(=O)[C@H]([C@@H](C)O)NC(=O)[C@H](CCN)NC(=O)[C@H](CCN)NC(=O)[C@H](CC(C)C)NC(=O)[C@@H](Cc3ccccc3)NC(=O)[C@H](CCN)NC2=O)NC(=O)[C@H](C(C)C)NC(=O)[C@@H]2CCCN2C(=O)[C@@H](Cc2ccc(O)cc2)NC(=O)[C@H]([C@@H](C)O)NC1=O)C(C)(C)C [Ex. 160] (Ac-W[Dab][Tle]CT[dY]PVCY[Dab][Dap][Dab][Dab][Dab][Dab][Dab][dF]L[Dab][Dab]T; disulfide 4-9; lactam 16-C) | <1% | 0.25 µg/mL | 4 µg/mL | 1 µg/mL | 0.5 µg/mL | 2 µg/mL | 0.5 µg/mL | 1 µg/mL |  |
| CC(C)C[C@@H]1NC(=O)[C@@H](CC(C)C)NC(=O)[C@H](CCN)NC(=O)[C@@H](NC(=O)[C@H](CCN)NC(=O)[C@@H](NC(=O)[C@H](CCN)NC(=O)CN(C)C(=O)[C@H](CCN)NC(=O)[C@H](Cc2ccc(O)cc2)NC(=O)[C@@H]2CSSC[C@H](NC(=O)[C@@H](NC(=O)[C@H](CCN)NC(=O)[C@@H](N)Cc3c[nH]c4ccccc34)C(C)(C)C)C(=O)N[C@@H](CO)C(=O)N3CCC[C@@H]3C(=O)N3CCC[C@H]3C(=O)N[C@@H](CC(C)C)C(=O)N2)[C@@H](C)O)CCNC(=O)[C@H]([C@@H](C)O)NC(=O)[C@H](CCN)NC(=O)[C@H](CCN)NC1=O [Ex. 161] (H-W[Dab][Tle]CS[dP]PLCY[Dab][Sar][Dab]T[Dab][Dab][Dab][dL]L[Dab][Dab]T; disulfide 4-9; lactam 16-C) | <1% | 0.5 µg/mL | 2 µg/mL | 0.5 µg/mL | 0.25 µg/mL | 0.25 µg/mL | 0.0625 µg/mL | 0.125 µg/mL |  |
| CC(C)C[C@@H]1NC(=O)[C@@H](CC(C)C)NC(=O)[C@H](CCN)NC(=O)[C@@H](NC(=O)[C@H](CCN)NC(=O)[C@@H](NC(=O)[C@H](CCN)NC(=O)CNC(=O)[C@H](CCN)NC(=O)[C@H](Cc2ccc(O)cc2)NC(=O)[C@H]2NC(=O)[C@H](CC(C)C)NC(=O)[C@@H]3CCCN3C(=O)[C@H]3CCCN3C(=O)[C@H](CO)NC(=O)[C@@H](NC(=O)[C@@H](NC(=O)[C@H](CCN)NC(=O)[C@@H](N)Cc3c[nH]c4ccccc34)C(C)C)CSSC2(C)C)[C@@H](C)O)CCNC(=O)[C@H]([C@@H](C)O)NC(=O)[C@H](CCN)NC(=O)[C@H](CCN)NC1=O [Ex. 162] (H-W[Dab]VCS[dP]PL[Pen]Y[Dab]G[Dab]T[Dab][Dab][Dab][dL]L[Dab][Dab]T; disulfide 4-9; lactam 16-C) | <1% | 1 µg/mL | 2 µg/mL | 0.125 µg/mL | 0.5 µg/mL | 0.25 µg/mL | 0.0625 µg/mL | 0.25 µg/mL |  |
| CC(=O)N[C@@H](Cc1c[nH]c2ccccc12)C(=O)N[C@@H](CCN)C(=O)N[C@H](C(=O)N[C@H]1CC(=O)NCC[C@@H](C(=O)N[C@@H](Cc2ccc(O)cc2)C(=O)N[C@@H](CCN)C(=O)N[C@H](C(=O)N[C@@H](CCN)C(=O)N[C@@H](CCN)C(=O)N[C@@H](CCN)C(=O)N[C@H]2CCNC(=O)[C@H]([C@@H](C)O)NC(=O)[C@H](CCN)NC(=O)[C@H](CCN)NC(=O)[C@H](CC(C)C)NC(=O)[C@@H](Cc3ccccc3)NC(=O)[C@H](CCN)NC2=O)[C@@H](C)O)NC(=O)[C@H](C(C)C)NC(=O)[C@@H]2CCCN2C(=O)[C@H]2CCCN2C(=O)[C@H](Cc2c[nH]cn2)NC1=O)C(C)(C)C [Ex. 167] (Ac-W[Dab][Tle]DH[dP]PV[Dab]Y[Dab]T[Dab][Dab][Dab][Dab][Dab][dF]L[Dab][Dab]T; lactam 4-9, 16-C) |  | 0.125 µg/mL | 2 µg/mL | 1 µg/mL | 0.5 µg/mL | 1 µg/mL | 0.25 µg/mL | 0.25 µg/mL | <1% |
| CC(=O)N[C@@H](Cc1c[nH]c2ccccc12)C(=O)N[C@@H](CCN)C(=O)N[C@H](C(=O)N[C@H]1CC(=O)NCC[C@@H](C(=O)N[C@@H](Cc2ccc(O)cc2)C(=O)N[C@@H](CCN)C(=O)N[C@H](C(=O)N[C@@H](CCN)C(=O)N[C@@H](CCN)C(=O)N[C@@H](CCN)C(=O)N[C@H]2CCNC(=O)[C@H]([C@@H](C)O)NC(=O)[C@H](CCN)NC(=O)[C@H](CCN)NC(=O)[C@H](CC(C)C)NC(=O)[C@@H](CC(C)C)NC(=O)[C@H](CCN)NC2=O)[C@@H](C)O)NC(=O)[C@H](C(C)C)NC(=O)[C@@H]2CCCN2C(=O)[C@H]2CCCN2C(=O)[C@H](Cc2c[nH]cn2)NC1=O)C(C)(C)C [Ex. 168] (Ac-W[Dab][Tle]DH[dP]PV[Dab]Y[Dab]T[Dab][Dab][Dab][Dab][Dab][dL]L[Dab][Dab]T; lactam 4-9, 16-C) |  | 0.25 µg/mL | 4 µg/mL | 1 µg/mL | 2 µg/mL | 0.5 µg/mL | 0.5 µg/mL | 1 µg/mL | 3% |
| CC(C)C[C@@H]1NC(=O)[C@H](CCCNC(=N)N)NC(=O)[C@@H](CCN)NC(=O)[C@H](C(C)C)NC(=O)[C@@H](NC(=O)[C@H](Cc2ccc(O)cc2)NC(=O)[C@H](CO)NC(=O)[C@@H](N)Cc2c[nH]c3ccccc23)CSSC[C@@H](C(=O)N[C@@H](Cc2ccc(O)cc2)C(=O)N[C@@H](CC(N)=O)C(=O)N(C)CC(=O)N[C@@H](CCN)C(=O)N[C@H](C(=O)N[C@@H](CCN)C(=O)N[C@H]2CCNC(=O)[C@H]([C@@H](C)O)NC(=O)[C@H](CCN)NC(=O)[C@H](CCN)NC(=O)[C@H](CC(C)C)NC(=O)[C@@H](CC(C)C)NC(=O)[C@H](CCN)NC2=O)[C@@H](C)O)NC1=O [Ex. 169] (H-WSYCV[dDab]RLCYN[Sar][Dab]T[Dab][Dab][Dab][dL]L[Dab][Dab]T; disulfide 4-9; lactam 16-C) | 1% | 1 µg/mL | 2 µg/mL | 1 µg/mL | 1 µg/mL | 0.5 µg/mL | 0.5 µg/mL | 0.25 µg/mL |  |
| CC[C@H](C)[C@@H]1NC(=O)[C@@H]2CCCN2C(=O)[C@H]2CCCN2C(=O)[C@H](Cc2ccc(O)cc2)NC(=O)[C@@H](NC(=O)[C@@H](NC(=O)[C@H](CCN)NC(=O)[C@@H](N)CC(C)C)C(C)C)CSSC[C@@H](C(=O)N[C@@H](Cc2ccc(O)cc2)C(=O)N[C@@H](CCN)C(=O)N(C)CC(=O)N[C@@H](CCN)C(=O)N[C@H](C(=O)N[C@@H](CCN)C(=O)N[C@H]2CCNC(=O)[C@H]([C@@H](C)O)NC(=O)[C@H](CCN)NC(=O)[C@H](CCN)NC(=O)[C@H](CC(C)C)NC(=O)[C@@H](CC(C)C)NC(=O)[C@H](CCN)NC2=O)[C@@H](C)O)NC1=O [Ex. 170] (H-L[Dab]VCY[dP]PICY[Dab][Sar][Dab]T[Dab][Dab][Dab][dL]L[Dab][Dab]T; disulfide 4-9; lactam 16-C) | 1% | 0.5 µg/mL | 0.5 µg/mL | 0.125 µg/mL | 1 µg/mL | 0.25 µg/mL | 0.5 µg/mL | 1 µg/mL |  |
